The target in the assay is SIK2 (Homo sapiens, UniProt Q9H0K1). Nature of the assay: SIK2 Enzymatic Assay High Version 2 (High ATP). Type of assay: biochemical. Conditions: for IC50: enzyme 6 nM, 6 mM ATP and 400 μM HDAC5tide (each 2× final concentration), 30 minutes pre-incubation, 2 hours, ADP-Glo Max luminescence, read-out: SIK2 high ATP IC50 (μM) (Test Example 2). How it is done: All steps were performed at room temperature. Compounds were pre-plated onto an assay plate using an Echo acoustic dispenser (Labcyte, E550 or E555) at 80 nL per well. Enzyme prepared in assay buffer at 6 nM (2× final concentration) was added at 4 μL per well using the Multidrop Combi (Thermo Fisher—used for all additions in this assay) to the assay plate, spun for 1 min at 1000 rpm (Allegra 6KR Beckman Coulter centrifuge), and incubated with compound for 30 minutes. Assay buffer containing 6 mM ATP and 400 μM HDAC5tide (2× of final concentration for each substrate) was added at 4 μL per well to the assay plate and then spun as above and incubated for 2 hours. […] ADP-Glo Max Reagent (prepared and aliquoted as per manufacturer instructions) was then added at 8 μL per well, spun and incubated for 2 hours. ADP-Glo Max Detection (prepared and aliquoted as per manufacturer instructions) was added at 8 μL per well to the assay plate, which was spun and incubated for 1 hour. The plate is then read on the Pherastar (BMG Labtech) using a luminescence read. Gain is set between 2200-2500.
SIK2, sequence (Q9H0K1 whole entry, species assumed): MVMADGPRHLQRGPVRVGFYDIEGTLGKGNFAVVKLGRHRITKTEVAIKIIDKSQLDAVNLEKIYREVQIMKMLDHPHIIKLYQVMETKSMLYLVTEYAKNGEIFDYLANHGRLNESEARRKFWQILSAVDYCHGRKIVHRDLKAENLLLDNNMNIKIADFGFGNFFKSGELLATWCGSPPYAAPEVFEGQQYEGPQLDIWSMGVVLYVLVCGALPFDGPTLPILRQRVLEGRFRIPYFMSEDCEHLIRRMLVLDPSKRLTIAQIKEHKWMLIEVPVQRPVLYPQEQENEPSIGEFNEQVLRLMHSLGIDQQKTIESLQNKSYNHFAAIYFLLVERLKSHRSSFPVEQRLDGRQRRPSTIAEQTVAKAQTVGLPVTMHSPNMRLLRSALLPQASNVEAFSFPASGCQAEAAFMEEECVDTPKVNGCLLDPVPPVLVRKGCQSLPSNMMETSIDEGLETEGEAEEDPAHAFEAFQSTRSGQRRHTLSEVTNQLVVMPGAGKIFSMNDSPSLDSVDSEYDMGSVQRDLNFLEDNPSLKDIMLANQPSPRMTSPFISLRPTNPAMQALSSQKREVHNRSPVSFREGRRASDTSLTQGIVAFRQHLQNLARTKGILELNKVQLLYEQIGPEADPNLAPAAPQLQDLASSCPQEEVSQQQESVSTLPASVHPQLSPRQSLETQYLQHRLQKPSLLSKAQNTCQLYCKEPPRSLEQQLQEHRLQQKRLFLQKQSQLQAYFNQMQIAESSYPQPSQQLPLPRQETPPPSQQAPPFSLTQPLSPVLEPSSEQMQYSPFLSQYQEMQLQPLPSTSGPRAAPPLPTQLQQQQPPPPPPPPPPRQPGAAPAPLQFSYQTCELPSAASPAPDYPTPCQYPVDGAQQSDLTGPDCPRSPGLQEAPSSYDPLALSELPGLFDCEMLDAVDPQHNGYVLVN

pIC50: −log10 of the molar value. Where two headings read alike, the source gives them in different places.

What is called IC50 is the concentration that gives 50% inhibition. Consider `Cc1cc(-c2ccn3nc(Nc4cc(C)nc(C)n4)cc3c2)c(OCC(C)(O)C(F)(F)F)cn1` (single isomer, unassigned) [Example 263, (*S)-3-[[4-[2-[(2,6-dimethylpyrimidin-4-yl)amino]pyrazolo[1,5-a]pyridin-5-yl]-6-methyl-3-pyridyl]oxy]-1,1,1-trifluoro-2-methyl-propan-2-ol], for which the IC50 is 0.00844 µM.

`Cc1cc(-c2ccn3nc(Nc4cc(C)nc(C)n4)cc3c2)c(OC[C@@](C)(O)C(F)(F)F)cn1` (single isomer, unassigned) [Example 264, (*R)-3-[[4-[2-[(2,6-dimethylpyrimidin-4-yl)amino]pyrazolo[1,5-a]pyridin-5-yl]-6-methyl-3-pyridyl]oxy]-1,1,1-trifluoro-2-methyl-propan-2-ol]: the half-inhibitory concentration (IC50) amounted to 0.0348 µM.

With `Cc1cc(-c2ccn3nc(Nc4cc(C)nc(C)n4)cc3c2)c(OC[C@@](C)(N)C(F)(F)F)cn1` (single isomer, unassigned) [Example 270, (*R)-5-[5-(2-Amino-3,3,3-trifluoro-2-methyl-propoxy)-2-methyl-4-pyridyl]-N-(2,6-dimethylpyrimidin-4-yl)pyrazolo[1,5-a]pyridin-2-amine], the half-inhibitory concentration (IC50) amounted to 0.0193 µM.

Turning to `Cc1cc(-c2ccn3nc(Nc4cc(C)nc(C)n4)cc3c2)c(OC[C@](C)(N)C(F)(F)F)cn1` (single isomer, unassigned) [Example 304, (*S)-5-[5-(2-amino-3,3,3-trifluoro-2-methyl-propoxy)-2-methyl-4-pyridyl]-N-(2,6-dimethylpyrimidin-4-yl)pyrazolo[1,5-a]pyridin-2-amine], the IC50 turned out to be 0.0028 µM.

Turning to `Cc1cc(-c2ccn3nc(Nc4cc(C)c(=O)n(C)n4)cc3c2)c(OC2CCC(S(C)(=O)=O)CC2)cn1` (single isomer, unassigned) [Example 306, 2,4-dimethyl-6-((5-(2-methyl-5-(((1r,4r)-4-(methylsulfonyl)cyclohexyl)oxy)pyridin-4-yl)pyrazolo[1,5-a]pyridin-2-yl)amino)pyridazin-3(2H)-one], the IC50 was found to be 0.0358 µM.

In the case of `Cc1cc(-c2ccn3nc(Nc4cc(C)c(=O)n(C)n4)cc3c2)c(OC[C@@](C)(N)C(F)(F)F)cn1` (single isomer, unassigned) [Example 311, (*R)-6-[[5-[5-(2-amino-3,3,3-trifluoro-2-methyl-propoxy)-2-methyl-4-pyridyl]pyrazolo[1,5-a]pyridin-2-yl]amino]-2,4-dimethyl-pyridazin-3-one], the IC50 came out at 0.0057 µM.

As for `Cc1cc(-c2ccn3nc(Nc4cc(C)c(=O)n(C)n4)cc3c2)c(OC[C@](C)(N)C(F)(F)F)cn1` (single isomer, unassigned) [Example 312, (*S)-6-[[5-[5-(2-amino-3,3,3-trifluoro-2-methyl-propoxy)-2-methyl-4-pyridyl]pyrazolo[1,5-a]pyridin-2-yl]amino]-2,4-dimethyl-pyridazin-3-one], the half-inhibitory concentration (IC50) was less than 0.000847 µM.

A word on the pIC50: it is −log10 of the IC50, conventionally taken in molar units. Higher therefore signals a low IC50. The compound `Cc1cc(-c2ccn3nc(Nc4cc(C)nc(C)n4)cc3c2)c(OC[C@@H]2CC[C@@H](O)CO2)cn1` (single isomer, unassigned) [Example 346, (3*R,6*S)-6-[[4-[2-[(2,6-dimethylpyrimidin-4-yl)amino]pyrazolo[1,5-a]pyridin-5-yl]-6-methyl-3-pyridyl]oxymethyl]tetrahydropyran-3-ol] had a pIC50 of 7.78.

For `Cc1cc(-c2ccn3nc(Nc4cc(C)nc(C)n4)cc3c2)c(OC[C@H]2CC[C@H](O)CO2)cn1` (single isomer, unassigned) [Example 347, (3*S,6*S)-6-[[4-[2-[(2,6-dimethylpyrimidin-4-yl)amino]pyrazolo[1,5-a]pyridin-5-yl]-6-methyl-3-pyridyl]oxymethyl]tetrahydropyran-3-ol], the pIC50 is 7.45.

Turning to `Cc1cc(-c2cn3cc(Nc4cc(C)nc(C)n4)nc3cn2)c(O[C@H]2C[C@H]3COC[C@@H](C2)N3)cn1` (single isomer, unassigned) [Example 348], the pIC50 was greater than 9.07.

On to `Cc1cc(-c2ccn3nc(Nc4cc(C)nc(C)n4)cc3c2)c(OC[C@@H]2COC[C@H](O)C2)cn1` (single isomer, unassigned) [Example 351, (3*R, 5*S)-5-[[4-[2-[(2,6-dimethylpyrimidin-4-yl)amino]pyrazolo[1,5-a]pyridin-5-yl]-6-methyl-3-pyridyl]oxymethyl]tetrahydropyran-3-ol], for which the IC50 is 0.00278 µM.

As to `Cc1cc(-c2ccn3nc(Nc4cc(C)nc(C)n4)cc3c2)c(O[C@@H]2CCS(=O)(=O)N(C)C2)cn1` (single isomer, unassigned) [Example 354, (*R)—N-(2,6-dimethylpyrimidin-4-yl)-5-[2-methyl-5-(2-methyl-1,1-dioxo-thiazinan-4-yl)oxy-4-pyridyl]pyrazolo[1,5-a]pyridin-2-amine], the concentration for half-maximal inhibition (IC50) is 0.0322 µM.

Turning to `Cc1cc(-c2ccn3nc(Nc4cc(C)nc(C)n4)cc3c2)c(O[C@H]2CCS(=O)(=O)N(C)C2)cn1` (single isomer, unassigned) [Example 355, (*S)—N-(2,6-dimethylpyrimidin-4-yl)-5-[2-methyl-5-(2-methyl-1,1-dioxo-thiazinan-4-yl)oxy-4-pyridyl]pyrazolo[1,5-a]pyridin-2-amine], the IC50 was determined as 0.00681 µM.

In the case of `Cc1cc(-c2ccn3nc(Nc4cc(C)nc(C)n4)cc3c2)c(OC[C@H]2CCS(=O)(=O)C2)cn1` (single isomer, unassigned) [Example 363, (*R)—N-(2,6-dimethylpyrimidin-4-yl)-5-[5-[(1,1-dioxothiolan-3-yl)methoxy]-2-methyl-4-pyridyl]pyrazolo[1,5-a]pyridin-2-amine], the IC50 is 0.0035 µM.

Take `Cc1cc(-c2ccn3nc(Nc4cc(C)nc(C)n4)cc3c2)c(OC[C@@H]2CCS(=O)(=O)C2)cn1` (single isomer, unassigned) [Example 364, (*S)—N-(2,6-dimethylpyrimidin-4-yl)-5-[5-[(1,1-dioxothiolan-3-yl)methoxy]-2-methyl-4-pyridyl]pyrazolo[1,5-a]pyridin-2-amine]: the IC50 amounted to 0.0441 µM.

For the compound `Cc1cc(-c2ccn3nc(NC(=O)C4CC4)cc3c2)c(O[C@H]2CCN[C@@H](C(F)(F)F)C2)cn1` (single isomer, unassigned) [Example 446], the IC50 stood at 0.00318 µM.

For the compound `Cc1cc(-c2ccn3nc(NC(=O)C4CC4)cc3c2)c(OC[C@@]2(F)CCNC2)cn1` (single isomer, unassigned) [Example 447, (*R)—N-[5-[5-[(3-fluoropyrrolidin-3-yl)methoxy]-2-methyl-4-pyridyl]pyrazolo[1,5-a]pyridin-2-yl]cyclopropanecarboxamide], the IC50 stood at 0.0246 µM.

In the case of `Cc1cc(-c2ccn3nc(NC(=O)C4CC4)cc3c2)c(OC[C@]2(F)CCNC2)cn1` (single isomer, unassigned) [Example 448, (*S)—N-[5-[5-[(3-fluoropyrrolidin-3-yl)methoxy]-2-methyl-4-pyridyl]pyrazolo[1,5-a]pyridin-2-yl]cyclopropanecarboxamide], the IC50 amounted to 0.0469 µM.

On to `Cc1cc(-c2ccn3nc(NC(=O)C4CC4)cc3c2)c(OCC2(F)CCN(C)C2)cn1` (single isomer, unassigned) [Example 449, *R—N-[5-[5-[(3-fluoro-1-methyl-pyrrolidin-3-yl)methoxy]-2-methyl-4-pyridyl]pyrazolo[1,5-a]pyridin-2-yl]cyclopropanecarboxamide], for which the IC50 is 0.0472 µM.

`Cc1cc(-c2ccn3nc(NC(=O)C4CC4)cc3c2)c(OCC2(C)CCN2C)cn1` (single isomer, unassigned) [Example 450, (*S)—N-[5-[5-[(1,2-dimethylazetidin-2-yl)methoxy]-2-methyl-4-pyridyl]pyrazolo[1,5-a]pyridin-2-yl]cyclopropanecarboxamide]: the 50% inhibitory concentration (IC50) stood at 0.04 µM.

With `Cc1cc(-c2ccn3nc(NC(=O)C4CC4)cc3c2)c(OC[C@@H](O)C(F)(F)F)cn1` (single isomer, unassigned) [Example 454, (*R)—N-[5-[2-methyl-5-[(2R)-3,3,3-trifluoro-2-hydroxy-propoxy]-4-pyridyl]pyrazolo[1,5-a]pyridin-2-yl]cyclopropanecarboxamide], the IC50 was found to be 0.0134 µM.

Compound `Cc1cc(-c2ccn3nc(NC(=O)C4CC4)cc3c2)c(O[C@H]2CN(C)[C@H]2C)cn1` (single isomer, unassigned) [Example 456, (*S, *S)—N-[5-[5-(1,2-dimethylazetidin-3-yl)oxy-2-methyl-4-pyridyl]pyrazolo[1,5-a]pyridin-2-yl]cyclopropanecarboxamide] showed a pIC50 of 7.69.

In the case of `CO[C@H]1CN(C)C[C@@H]1COc1cnc(C)cc1-c1ccn2nc(NC(=O)C3CC3)cc2c1` (single isomer, unassigned) [Example 461, Trans-*R, *R—N-[5-[5-[(4-methoxy-1-methyl-pyrrolidin-3-yl)methoxy]-2-methyl-4-pyridyl]pyrazolo[1,5-a]pyridin-2-yl]cyclopropanecarboxamide], the IC50 was less than 0.000847 µM.

As for `Cc1cc(-c2ccn3nc(NC(=O)C4CC4)cc3c2)c(OC[C@H](N)c2ccccc2)cn1` (single isomer, unassigned) [Example 465], the concentration for half-maximal inhibition (IC50) was 0.0129 µM.

Take `Cc1cc(-c2ccn3nc(NC(=O)C4CC4)cc3c2)c(OC[C@@H](N)c2ccccc2)cn1` (single isomer, unassigned) [Example 467]: the half-inhibitory concentration (IC50) turned out to be 0.0304 µM.

Regarding `Cc1cc(-c2ccn3nc(Nc4cccnn4)cc3c2)c(OC[C@H]2CNCC(C)(C)O2)cn1` (single isomer, unassigned) [Example 516, (*R)-5-[5-[(6,6-dimethylmorpholin-2-yl)methoxy]-2-methyl-4-pyridyl]-N-pyridazin-3-yl-pyrazolo[1,5-a]pyridin-2-amine], the concentration for half-maximal inhibition (IC50) came out at 0.0528 µM.
